Experimental data published in ChEMBL document CHEMBL5727596, “Tetrahydroisoquinoline derivatives useful as inhibitors of diacylglyceride O-acyltransferase 2” (2020).

What follows are compounds tested against T1, Diacylglycerol O-acyltransferase 2 (Homo sapiens, UniProt Q96PD7) (assay: Enzymatic Activity Assay: DGAT2 activity was determined by measuring the amount of enzymatic product triolein (1,2,3-Tri(cis-9-octadecenoyl)glycerol) using the membrane prep mentioned above. The assay was carried out in deep well 384 plates in a final volume of 40 μL at room temperature. The assay mixture contained the following: assay buffer (100 mM Tris.Cl, pH 7.0, 20 mM MgCl2, 5% ethanol), 25 μM of diolein, 10 μM of oleoyl-CoA and 10 ng/μL of DGAT2 membrane.).
T1 sequence (Q96PD7 whole entry): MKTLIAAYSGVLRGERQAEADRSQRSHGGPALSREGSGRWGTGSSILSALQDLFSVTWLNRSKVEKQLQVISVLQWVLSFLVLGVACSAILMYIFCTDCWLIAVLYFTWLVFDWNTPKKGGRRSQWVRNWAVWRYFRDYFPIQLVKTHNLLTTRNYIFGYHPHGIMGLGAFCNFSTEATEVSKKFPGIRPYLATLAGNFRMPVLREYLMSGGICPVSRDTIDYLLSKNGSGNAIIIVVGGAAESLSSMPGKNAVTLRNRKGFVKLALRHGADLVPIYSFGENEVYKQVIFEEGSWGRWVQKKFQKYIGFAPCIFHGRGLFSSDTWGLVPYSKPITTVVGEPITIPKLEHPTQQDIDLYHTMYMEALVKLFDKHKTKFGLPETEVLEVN

First: COC(=O)c1cccc(-c2ccc(CNC(=O)C3CC3c3ccccc3)c3c2CCN(Cc2ccncc2)C3)c1 (mixture of isomers)
Second: COC(=O)c1cccc(-c2ccc(CNC(=O)C3CC3c3ccccc3)c3c2CCN(C(=O)c2ccccn2)C3)c1 (mixture of isomers)
The IC50 of the first is 9.7-fold higher: 2410 nM for the first, 249 nM for the second.

Going from `Cc1noc([C@@H]2C[C@H]2C(=O)NCc2ccc(-c3cncc(C(C)(C)O)c3)c3c2CN(C(=O)NC(C)(C)C)CC3)n1` (relative stereo) to `Cc1noc([C@H]2C[C@@H]2C(=O)NCc2ccc(-c3cccc(C(F)(F)F)c3)c3c2CN(C(=O)NC(C)(C)C)CC3)n1` (relative stereo), the IC50 falls from 512 nM to 5.8 nM (88-fold).

Compared with `CCCNC(=O)N1CCc2c(-c3cccc(OC)c3)ccc(CNC(=O)[C@@H]3C[C@H]3c3nc(C)no3)c2C1` (relative stereo), `COc1cccc(-c2ccc(CNC(=O)[C@H]3C[C@@H]3c3nc(C)no3)c3c2CCN(C(=O)C(C)(C)O)C3)c1` (relative stereo) is 87-fold higher in IC50: 8.3 nM for the first, 723 nM for the second. The first is the more potent here.

First: COC(=O)c1cccc(-c2ccc(CNC(=O)C3CC3c3ccccc3)c3c2CCN(Cc2cc(C)n(C4CC4)c2C)C3)c1 (mixture of isomers)
Second: COc1cccc(-c2ccc(CNC(=O)[C@@H]3C[C@H]3c3ccccc3)c3c2CCN(C(=O)NC2CC2)C3)c1 (mixture of isomers)
The IC50 of the first is 120-fold higher: 2800 nM for the first, 22.6 nM for the second. The second is the more potent here.

Compared with `CCCCC(CC)CNC(=O)N1CCc2c(-c3cccc(OC)c3)ccc(CNC(=O)[C@@H]3C[C@H]3c3ccccc3)c2C1` (relative stereo), `COc1cccc(-c2ccc(CNC(=O)[C@@H]3C[C@H]3c3ccccc3)c3c2CCN(C(=O)NC(C)C(C)C)C3)c1` (mixture of isomers) is 10-fold lower in IC50: 249 nM for the first, 23.8 nM for the second. The second is the more potent here.
